Data as given in ChEMBL document CHEMBL4390652, “Design, biological evaluation and X-ray crystallography of nanomolar multifunctional ligands targeting simultaneously acetylcholinesterase and glycogen synthase kinase-3” (Eur J Med Chem, 2019).

What was measured:
[1] = target: Serine/threonine-protein kinase N1 (Homo sapiens) (UniProt Q16512); experiment: Binding affinity to wild-type human partial length PKN1 (E598 to C948 residues) expressed in bacterial expression system assessed as residual binding level at 10 uM by Kinomescan method relative to control
MDR1 = experiment: in vitro; conditions: dog, MDCK-MDR1
Description: Apparent permeability across apical to basolateral side in MDCK2-MDR1 cells by HPLC analysis

[2] = target: Tyrosine-protein kinase ZAP-70 (Homo sapiens) (UniProt P43403); experiment: Binding affinity to wild-type human partial length ZAP70 (D20 to G299 residues) expressed in mammalian expression system assessed as residual binding level at 10 uM by Kinomescan method relative to control
Chain of Tyrosine-protein kinase ZAP-70 (Homo sapiens) (P43403 whole entry, the tested form may be a part): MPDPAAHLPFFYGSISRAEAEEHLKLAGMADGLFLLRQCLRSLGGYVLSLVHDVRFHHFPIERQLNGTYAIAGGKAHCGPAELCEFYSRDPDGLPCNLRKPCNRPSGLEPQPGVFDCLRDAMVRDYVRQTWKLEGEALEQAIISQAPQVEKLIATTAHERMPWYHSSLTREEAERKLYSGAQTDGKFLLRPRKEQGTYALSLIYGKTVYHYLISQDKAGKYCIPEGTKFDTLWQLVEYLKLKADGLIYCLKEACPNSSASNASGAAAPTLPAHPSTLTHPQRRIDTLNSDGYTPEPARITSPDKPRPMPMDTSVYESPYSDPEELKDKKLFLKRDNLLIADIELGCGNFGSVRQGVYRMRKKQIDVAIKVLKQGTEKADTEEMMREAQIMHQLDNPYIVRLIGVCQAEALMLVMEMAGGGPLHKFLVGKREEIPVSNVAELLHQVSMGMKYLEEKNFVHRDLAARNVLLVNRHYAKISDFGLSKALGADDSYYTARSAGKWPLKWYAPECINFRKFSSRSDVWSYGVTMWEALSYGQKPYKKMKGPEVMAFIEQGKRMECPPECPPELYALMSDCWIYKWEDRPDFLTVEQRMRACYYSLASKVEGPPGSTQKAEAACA

[3] = target: Activin receptor type-1-like (Homo sapiens) (UniProt P37023); experiment: Binding affinity to wild-type human ACVRL1 (L164 to Q503 residues) expressed in bacterial expression system assessed as residual binding level at 10 uM by Kinomescan method relative to control
[4] = target: TGF-beta receptor type-1 (Homo sapiens) (UniProt P36897); experiment: Binding affinity to wild-type human partial length TGFBR1 (D179 to M503 residues) expressed in bacterial expression system assessed as residual binding level at 10 uM by Kinomescan method relative to control
[5] = target: BDNF/NT-3 growth factors receptor (Homo sapiens) (UniProt Q16620); experiment: Binding affinity to wild-type human partial length TRKB (Q547 to G838 residues) expressed in mammalian expression system assessed as residual binding level at 10 uM by Kinomescan method relative to control
[6] = target: Mitogen-activated protein kinase kinase kinase 13 (Homo sapiens) (UniProt O43283); experiment: Binding affinity to wild-type human full length LZK (M1 to W966 residues) expressed in mammalian expression system assessed as residual binding level at 10 uM by Kinomescan method relative to control
[7] = target: Phosphorylase b kinase gamma catalytic chain, skeletal muscle/heart isoform (Homo sapiens) (UniProt Q16816); experiment: Binding affinity to wild-type human full length PHKG1 (M1 to Y387 residues) expressed in bacterial expression system assessed as residual binding level at 10 uM by Kinomescan method relative to control
[8] = tested on: Phosphatidylinositol 4,5-bisphosphate 3-kinase catalytic subunit alpha isoform (Homo sapiens), P42336 [M1043I]; experiment: Binding affinity to human partial length PIK3CA M1043I mutant (R108 to N1068 residues) expressed in mammalian expression system assessed as residual binding level at 10 uM by Kinomescan method relative to control
[9] = target: Tyrosine-protein kinase Fer (Homo sapiens) (UniProt P16591); experiment: Binding affinity to wild-type human partial length FER (S542 to T822 residues) expressed in bacterial expression system assessed as residual binding level at 10 uM by Kinomescan method relative to control
[10] = target: Serine/threonine-protein kinase PAK 2 (Homo sapiens) (UniProt Q13177); experiment: Binding affinity to wild-type human partial length PAK2 (P151 to R525 residues) expressed in bacterial expression system assessed as residual binding level at 10 uM by Kinomescan method relative to control
Chain of Serine/threonine-protein kinase PAK 2 (Homo sapiens) (Q13177 whole entry, the tested form may be a part): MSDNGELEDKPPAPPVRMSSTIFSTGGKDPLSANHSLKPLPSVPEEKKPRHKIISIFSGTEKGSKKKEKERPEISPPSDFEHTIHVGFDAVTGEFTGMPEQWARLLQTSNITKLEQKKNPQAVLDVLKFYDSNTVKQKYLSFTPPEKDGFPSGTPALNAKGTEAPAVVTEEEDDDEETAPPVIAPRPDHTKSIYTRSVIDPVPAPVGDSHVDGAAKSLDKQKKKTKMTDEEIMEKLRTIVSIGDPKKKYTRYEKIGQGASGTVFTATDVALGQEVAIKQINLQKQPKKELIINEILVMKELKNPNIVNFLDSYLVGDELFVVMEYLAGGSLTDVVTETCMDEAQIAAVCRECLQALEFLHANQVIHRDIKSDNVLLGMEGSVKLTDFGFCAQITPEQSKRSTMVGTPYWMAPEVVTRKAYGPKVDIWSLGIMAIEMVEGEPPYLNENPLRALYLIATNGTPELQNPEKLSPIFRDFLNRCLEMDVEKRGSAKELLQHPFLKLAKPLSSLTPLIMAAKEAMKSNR

[11] = target: Hormonally up-regulated neu tumor-associated kinase (Homo sapiens) (UniProt P57058); experiment: Binding affinity to wild-type human partial length HUNK (A31 to K354 residues) expressed in bacterial expression system assessed as residual binding level at 10 uM by Kinomescan method relative to control
[12] = target: Ribosomal protein S6 kinase alpha-6 (Homo sapiens) (UniProt Q9UK32); experiment: Binding affinity to wild-type human partial length N-terminal RSK4 kinase domain 1 (M1 to E397 residues) expressed in mammalian expression system assessed as residual binding level at 10 uM by Kinomescan method relative to control
Chain of Ribosomal protein S6 kinase alpha-6 (Homo sapiens) (Q9UK32 whole entry, the tested form may be a part): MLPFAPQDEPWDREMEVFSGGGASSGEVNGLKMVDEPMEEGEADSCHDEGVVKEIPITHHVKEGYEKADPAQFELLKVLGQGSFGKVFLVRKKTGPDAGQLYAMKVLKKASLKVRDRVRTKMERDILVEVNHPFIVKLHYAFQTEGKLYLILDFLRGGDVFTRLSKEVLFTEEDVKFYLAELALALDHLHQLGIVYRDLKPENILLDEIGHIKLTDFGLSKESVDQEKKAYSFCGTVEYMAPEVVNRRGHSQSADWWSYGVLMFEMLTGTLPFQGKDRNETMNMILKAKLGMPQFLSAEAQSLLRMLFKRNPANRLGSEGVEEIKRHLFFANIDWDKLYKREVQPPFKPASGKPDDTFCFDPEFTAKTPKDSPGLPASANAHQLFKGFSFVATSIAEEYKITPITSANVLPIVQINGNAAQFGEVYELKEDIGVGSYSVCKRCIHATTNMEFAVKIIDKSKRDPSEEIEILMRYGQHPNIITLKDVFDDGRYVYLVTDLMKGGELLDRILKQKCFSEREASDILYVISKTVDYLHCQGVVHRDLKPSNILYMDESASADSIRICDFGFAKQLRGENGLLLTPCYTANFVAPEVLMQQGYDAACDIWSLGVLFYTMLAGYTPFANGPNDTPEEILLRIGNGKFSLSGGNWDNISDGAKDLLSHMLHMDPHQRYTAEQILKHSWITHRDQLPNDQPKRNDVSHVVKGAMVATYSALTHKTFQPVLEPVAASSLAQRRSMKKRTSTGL

[13] = target: Activin receptor type-2B (Homo sapiens) (UniProt Q13705); experiment: Binding affinity to wild-type human ACVR2B (H169 to D504 residues) expressed in bacterial expression system assessed as residual binding level at 10 uM by Kinomescan method relative to control
[14] = target: Non-receptor tyrosine-protein kinase TNK1 (Homo sapiens) (UniProt Q13470); experiment: Binding affinity to wild-type human full length TNK1 (M1 to P661 residues) expressed in bacterial expression system assessed as residual binding level at 10 uM by Kinomescan method relative to control
[15] = target: Cyclin-dependent kinase 19 (Homo sapiens) (UniProt Q9BWU1); experiment: Binding affinity to wild-type human partial length CDK11 (M1 to N360 residues) expressed in bacterial expression system assessed as residual binding level at 10 uM by Kinomescan method relative to control
[16] = target: Cyclin-dependent kinase-like 1 (Homo sapiens) (UniProt Q00532); experiment: Binding affinity to wild-type human full length CDKL1 (M1 to I358 residues) expressed in mammalian expression system assessed as residual binding level at 10 uM by Kinomescan method relative to control
[17] = target: Cyclin-dependent kinase 11B (Homo sapiens) (UniProt P21127); experiment: Binding affinity to wild-type human partial length CDC2L1 (P353 to G692 residues) expressed in bacterial expression system assessed as residual binding level at 10 uM by Kinomescan method relative to control
[18] = tested on: Epidermal growth factor receptor (Homo sapiens), P00533 [UNDEFINED MUTATION]; experiment: Binding affinity to human partial length EGFR L747-E749del/A750P mutant expressed in bacterial expression system assessed as residual binding level at 10 uM by Kinomescan method relative to control
[19] = tested on: Mast/stem cell growth factor receptor Kit (Homo sapiens), P10721 [UNDEFINED MUTATION]; experiment: Binding affinity to human partial length KIT V559D/V654 double mutant (Y545 to D952 residues) expressed in bacterial expression system assessed as residual binding level at 10 uM by Kinomescan method relative to control
[20] = target: 1-phosphatidylinositol 3-phosphate 5-kinase (Homo sapiens) (UniProt Q9Y2I7); experiment: Binding affinity to wild-type human partial length PIKFYVE (F1512 to C2098 residues) expressed in mammalian expression system assessed as residual binding level at 10 uM by Kinomescan method relative to control
Chain of 1-phosphatidylinositol 3-phosphate 5-kinase (Homo sapiens) (Q9Y2I7 whole entry, the tested form may be a part): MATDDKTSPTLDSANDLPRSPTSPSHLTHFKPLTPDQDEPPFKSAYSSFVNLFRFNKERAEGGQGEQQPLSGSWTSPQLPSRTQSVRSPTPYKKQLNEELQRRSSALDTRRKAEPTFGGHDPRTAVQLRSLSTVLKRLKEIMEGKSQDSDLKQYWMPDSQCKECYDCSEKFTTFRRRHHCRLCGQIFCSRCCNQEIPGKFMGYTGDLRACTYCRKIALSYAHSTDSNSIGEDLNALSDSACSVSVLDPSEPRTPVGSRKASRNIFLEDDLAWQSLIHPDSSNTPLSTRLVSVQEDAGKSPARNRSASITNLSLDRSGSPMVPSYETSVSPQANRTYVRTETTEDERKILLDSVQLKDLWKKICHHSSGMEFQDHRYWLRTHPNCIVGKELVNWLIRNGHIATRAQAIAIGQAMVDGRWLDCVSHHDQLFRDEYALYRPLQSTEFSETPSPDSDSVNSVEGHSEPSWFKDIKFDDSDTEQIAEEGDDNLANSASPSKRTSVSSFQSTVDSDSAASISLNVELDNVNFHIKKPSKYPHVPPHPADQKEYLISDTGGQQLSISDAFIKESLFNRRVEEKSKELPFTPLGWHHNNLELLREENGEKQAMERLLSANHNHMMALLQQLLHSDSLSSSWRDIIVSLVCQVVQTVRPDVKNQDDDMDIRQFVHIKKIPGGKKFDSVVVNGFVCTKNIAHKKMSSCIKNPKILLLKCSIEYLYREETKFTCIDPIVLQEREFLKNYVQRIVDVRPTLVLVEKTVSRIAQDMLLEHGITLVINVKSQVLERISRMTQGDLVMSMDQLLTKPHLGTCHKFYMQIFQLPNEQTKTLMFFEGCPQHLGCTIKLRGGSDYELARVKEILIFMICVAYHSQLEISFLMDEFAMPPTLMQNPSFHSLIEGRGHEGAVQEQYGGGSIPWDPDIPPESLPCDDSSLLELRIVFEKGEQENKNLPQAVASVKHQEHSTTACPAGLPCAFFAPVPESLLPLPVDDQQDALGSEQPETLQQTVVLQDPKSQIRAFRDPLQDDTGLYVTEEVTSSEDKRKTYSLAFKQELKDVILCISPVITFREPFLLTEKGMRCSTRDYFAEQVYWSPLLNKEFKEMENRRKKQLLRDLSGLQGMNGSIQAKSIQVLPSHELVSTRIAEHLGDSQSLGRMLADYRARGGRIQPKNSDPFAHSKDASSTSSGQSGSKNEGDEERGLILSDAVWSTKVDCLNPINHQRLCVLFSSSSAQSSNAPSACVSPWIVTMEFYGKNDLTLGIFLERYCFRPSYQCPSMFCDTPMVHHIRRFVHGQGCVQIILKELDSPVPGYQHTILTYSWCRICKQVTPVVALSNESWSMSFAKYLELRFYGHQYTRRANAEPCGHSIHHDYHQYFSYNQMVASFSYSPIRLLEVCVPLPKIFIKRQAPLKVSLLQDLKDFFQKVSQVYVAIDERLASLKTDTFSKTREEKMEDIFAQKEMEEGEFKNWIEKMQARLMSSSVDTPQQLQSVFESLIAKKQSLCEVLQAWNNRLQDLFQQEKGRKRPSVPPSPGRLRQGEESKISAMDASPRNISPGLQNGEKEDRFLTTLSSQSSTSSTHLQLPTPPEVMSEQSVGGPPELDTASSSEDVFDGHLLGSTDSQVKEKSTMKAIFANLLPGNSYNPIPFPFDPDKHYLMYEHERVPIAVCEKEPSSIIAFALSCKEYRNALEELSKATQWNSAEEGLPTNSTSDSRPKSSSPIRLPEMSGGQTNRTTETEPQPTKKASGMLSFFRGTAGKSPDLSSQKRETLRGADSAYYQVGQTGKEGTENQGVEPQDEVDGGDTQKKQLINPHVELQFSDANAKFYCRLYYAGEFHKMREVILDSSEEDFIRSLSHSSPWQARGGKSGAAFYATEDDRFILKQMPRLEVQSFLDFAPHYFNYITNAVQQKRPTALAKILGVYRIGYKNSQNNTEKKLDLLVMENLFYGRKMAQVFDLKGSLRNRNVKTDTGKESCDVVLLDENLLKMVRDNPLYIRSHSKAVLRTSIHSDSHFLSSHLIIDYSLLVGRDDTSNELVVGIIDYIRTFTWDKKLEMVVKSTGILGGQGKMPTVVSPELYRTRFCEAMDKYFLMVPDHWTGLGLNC

[21] = target: Serine/threonine-protein kinase TBK1 (Homo sapiens) (UniProt Q9UHD2); experiment: Binding affinity to wild-type human full length TBK1 (M1 to L729 residues) expressed in mammalian expression system assessed as residual binding level at 10 uM by Kinomescan method relative to control
Chain of Serine/threonine-protein kinase TBK1 (Homo sapiens) (Q9UHD2 whole entry, the tested form may be a part): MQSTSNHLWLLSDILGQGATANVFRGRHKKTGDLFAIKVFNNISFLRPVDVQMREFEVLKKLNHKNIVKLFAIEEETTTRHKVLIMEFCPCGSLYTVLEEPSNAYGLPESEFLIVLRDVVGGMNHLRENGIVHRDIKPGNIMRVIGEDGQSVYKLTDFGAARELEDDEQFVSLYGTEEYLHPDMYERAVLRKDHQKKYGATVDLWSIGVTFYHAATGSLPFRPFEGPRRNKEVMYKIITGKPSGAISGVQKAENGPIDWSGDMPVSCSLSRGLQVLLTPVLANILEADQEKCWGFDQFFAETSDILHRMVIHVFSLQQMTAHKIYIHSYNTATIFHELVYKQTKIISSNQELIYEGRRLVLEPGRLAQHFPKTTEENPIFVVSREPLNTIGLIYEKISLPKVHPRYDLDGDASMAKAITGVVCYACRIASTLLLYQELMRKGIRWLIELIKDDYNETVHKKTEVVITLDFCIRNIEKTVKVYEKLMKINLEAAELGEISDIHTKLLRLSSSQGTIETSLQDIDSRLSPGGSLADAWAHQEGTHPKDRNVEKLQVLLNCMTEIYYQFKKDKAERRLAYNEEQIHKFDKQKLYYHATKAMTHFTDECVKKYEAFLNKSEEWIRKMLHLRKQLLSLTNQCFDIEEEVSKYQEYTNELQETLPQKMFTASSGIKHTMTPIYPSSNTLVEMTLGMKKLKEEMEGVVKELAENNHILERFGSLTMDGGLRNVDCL

[22] = target: Testis-specific serine/threonine-protein kinase 3 (Homo sapiens) (UniProt Q96PN8); experiment: Binding affinity to wild-type human full length TSSK3 (M1 to T268 residues) expressed in mammalian expression system assessed as residual binding level at 10 uM by Kinomescan method relative to control
Chain of Testis-specific serine/threonine-protein kinase 3 (Homo sapiens) (Q96PN8 whole entry, the tested form may be a part): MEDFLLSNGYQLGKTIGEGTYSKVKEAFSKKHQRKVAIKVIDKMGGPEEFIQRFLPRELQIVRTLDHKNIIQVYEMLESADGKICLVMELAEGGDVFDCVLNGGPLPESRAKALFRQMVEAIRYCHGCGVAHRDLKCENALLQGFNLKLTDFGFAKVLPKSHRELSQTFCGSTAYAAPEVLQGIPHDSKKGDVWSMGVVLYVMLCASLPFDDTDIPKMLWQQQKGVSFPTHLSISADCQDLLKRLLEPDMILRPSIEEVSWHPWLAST

[23] = target: Ribosomal protein S6 kinase alpha-6 (Homo sapiens) (UniProt Q9UK32); experiment: Binding affinity to wild-type human partial length C-terminal RSK4 kinase domain 2 (I401 to Y711 residues) expressed in bacterial expression system assessed as residual binding level at 10 uM by Kinomescan method relative to control
[24] = target: Fibroblast growth factor receptor 3 (Homo sapiens) (UniProt P22607); experiment: Binding affinity to wild-type human partial length FGFR3 (R442 to S771 residues) expressed in bacterial expression system assessed as residual binding level at 10 uM by Kinomescan method relative to control

O=C(Nc1cc(-c2cn(CCNc3c4c(nc5ccccc35)CCCC4)nn2)ccn1)Nc1cccc2c1C1CCCCN1C2=O (racemic)
Activity [1]: 18% | Papp A→B (MDR1): 11.1 ×10⁻⁶ cm/s | Activity [2]: 60% | Activity [3]: 100% | Activity [4]: 74% | Activity [5]: 17% | Activity [6]: 13% | Activity [7]: 54% | Activity [8]: 100% | Activity [9]: 100% | Activity [10]: 34% | Activity [11]: 100% | Activity [12]: 2.2% | Activity [13]: 100% | Activity [14]: 48% | Activity [15]: 94% | Activity [16]: 3% | Activity [17]: 99% | Activity [18]: 68% | Activity [19]: 38% | Activity [20]: 15% | Activity [21]: 10% | Activity [22]: 100% | Activity [23]: 57% | Activity [24]: 54%
